According to publication PMC11790914, “Chemogenomics for steroid hormone receptors (NR3)” (Communications Chemistry, 2025):
Several values for one entry are separate records, joined by “and”; a condition that tells them apart may be missing. Identical values can stand only once.

Assays:
[1] = target: T1, FGFR3 (Homo sapiens, UniProt P22607); assay: Liability panel screening by DSF: FGFR3; type: binding; settings: DSF, 20 µM, n=2; read-out: Mean ΔTM FGFR3
T1 construct: made in house
Summary of the method: (§1)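 Recombinant protein at 2 µM in 10 mM HEPES pH 7.5 with 500 mM NaCl was mixed with SYPRO Orange (1:1000) and heated at 3 °C/min up to 85 °C. Tm was taken as the Boltzmann-fit inflection point. Shifts are ∆Tm in K from technical duplicates.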

[2] = target: T2, ABL1 (Homo sapiens, UniProt P00519); assay: Liability panel screening by DSF: ABL1; type: binding; settings: DSF, 20 µM, n=2; read-out: Mean ΔTM ABL1
T2 construct: made in house
Summary of the method: as §1

[3] = target: T3, BRD4 (Homo sapiens, UniProt O60885); assay: Liability panel screening by DSF: BRD4; type: binding; settings: DSF, 20 µM, n=2; read-out: Mean ΔTM BRD4
T3 construct: This panel comprised ten highly ligandable kinases and bromodomains; made in house
Summary of the method: as §1

[4] = system: ATF6 activity in Hela ATF6 reporter cells; assay: Endoplasmic reticulum stress assay (ATF6 Renilla luciferase reporter, tunicamycin); type: cell-based; settings: Homo sapiens, HeLa, 0.3 µM, single replicates n=1 to n=5; read-out: ER stress [rel. ATF6 activity]
Summary of the method: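 HeLa ATF6 Renilla reporter cells were pretreated 4 h with compounds in 0.1% DMSO, then stimulated with tunicamycin (100 ng/mL) for 18 h. Renilla luminescence (DualGlo) was normalized to 0.1% DMSO control; five independent experiments.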

[5] = system: HEK293T cells; assay: Cytotoxicity: metabolic activity (WST-8 / CCK-8 assay); settings: single replicates
[6] = system: HEK293T cells; assay: Cytotoxicity: necrosis induction (red fluorescent dye for permeable plasma membranes); type: cell-based; settings: 0.3 µM, 24 h, necrotic cell count normalized to 0.1% DMSO, single replicates;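 note: compounds applied in DMEM high glucose with 0.1% FCS and 0.1% DMSO, necrotic HEK293T cells counted by red staining of cells whose plasma membranes had become permeable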
[7] = target: T4, MAPK1 (Homo sapiens, UniProt P28482); assay: Liability panel screening by DSF: MAPK1; type: binding; settings: DSF, 20 µM, n=2; read-out: Mean ΔTM MAPK1
T4 construct: made in house
Summary of the method: as §1

[8] = system: HEK293T cells; assay: Cytotoxicity: growth-rate (change in confluence over 24 h); settings: normalized to 0.1% DMSO control, single replicates (n=1...)
Protocol: Cells were incubated with the test compounds at the indicated concentrations solubilized with 0.1% DMSO for 24 h. Growth-rate was determined based on the change in confluence over 24 h normalized to the change in confluence of cells treated with the 0.1% DMSO control (n = 10). Metabolic activity was determined with a water-soluble tetrazolium-8 (WST-8) assay (n = 8) after 24 h treatment. Apoptotic cells were detected with a fluorogenic DNA dye coupled to the caspase-3/7 recognition sequence (DEVD) after 24 h treatment and the apoptotic cell count was normalized to 0.1% DMSO treated cells (n = 6).
HEK293T cells (German Collection of Microorganisms and Cell Culture GmbH, DSMZ; #ACC305) were cultured in DMEM high glucose, supplemented with 10% fetal calf serum (FCS), sodium pyruvate (1 mM), penicillin (100 µ/mL) and streptomycin (100 µg/mL) at 37 °C and 5% (v/v) CO2, and seeded in pre-coated (10 µg/mL collagen G solution (Merck KgaA; #L7213) for 30 min at 37 °C) 96-well plates (2 × 10^5 cells per well). After 24 h, the cells were treated with the respective NR3 CG compound candidate at the recommended concentration, bexarotene (100 µM) or doxorubicin (30 µM) as positive controls in DMEM high glucose supplemented with 0.1% FCS, penicillin (100 µ/mL), streptomycin (100 µg/mL) and 0.1% DMSO, or 0.1% DMSO alone as an untreated control. Each sample was prepared in at least four biologically independent replicates. […] Thereafter, the medium was aspirated and the cells were incubated for 3 h with 90 µL DMEM high glucose supplemented with 0.2% FCS, penicillin (100 µ/mL) and streptomycin (100 µg/mL) and additionally containing 10 µL Cell Counting Kit 8 solution (CCK-8; MedChemExpress, Monmouth Junction, New York, USA; #HY-K0301), and absorbance was measured at 1 h, 2 h and 3 h of incubation at 450 nm on a Tecan Spark Cyto to assess metabolic activity of the cells. Before drug administration, after the first medium exchange, 24 h after drug administration, and after fluorescence imaging cell confluence was assessed using the Tecan Spark Cyto, to account for changes in cell confluence due to drug administration and cell handling. Compound effects on cell confluence, apoptosis, metabolic activity and necrosis were normalized to the vehicle control of each biological replicate individually.

[9] = target: T5, TRIM24 (Homo sapiens, UniProt O15164); assay: Liability panel screening by DSF: TRIM24; type: binding; settings: DSF, 20 µM, n=2; read-out: Mean ΔTM TRIM24
T5 construct: This panel comprised ten highly ligandable kinases and bromodomains; made in house
T5 sequence (O15164 899-1004 limits assumed): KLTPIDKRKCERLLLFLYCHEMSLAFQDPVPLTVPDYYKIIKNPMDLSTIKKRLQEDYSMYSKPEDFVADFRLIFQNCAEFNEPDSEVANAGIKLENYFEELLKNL
Summary of the method: as §1

[10] = system: HEK293T cells; assay: Cytotoxicity: apoptosis induction (caspase-3/7 DEVD fluorogenic DNA dye); settings: for Apoptosis induction [AI]: single replicates
[11] = target: T6, CDK2 (Homo sapiens, UniProt P24941); assay: Liability panel screening by DSF: CDK2; type: binding; settings: DSF, 20 µM, n=2; read-out: Mean ΔTM CDK2
T6 construct: made in house
Summary of the method: as §1

[12] = system: NF-κB activity in HEK293 NF-κB reporter cells; assay: NF-kB activity assay (GFP reporter, ionomycin/PMA); type: cell-based; settings: n=3
Summary of the method: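 HEK293 NF-κB GFP reporter cells given compound in 0.1% DMSO for 4 h, then stimulated with ionomycin 100 ng/mL plus PMA 10 ng/mL. Imaged every 90 min over 24 h; GFP-positive cell count normalized to confluence, three independent biological replicates.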

[13] = target: T7, AURKA (Homo sapiens, UniProt O14965); assay: Liability panel screening by DSF: AURKA; type: binding; settings: DSF, 20 µM, n=2; read-out: Mean ΔTM AURKA
T7 construct: made in house
T7 sequence (O14965 1-403): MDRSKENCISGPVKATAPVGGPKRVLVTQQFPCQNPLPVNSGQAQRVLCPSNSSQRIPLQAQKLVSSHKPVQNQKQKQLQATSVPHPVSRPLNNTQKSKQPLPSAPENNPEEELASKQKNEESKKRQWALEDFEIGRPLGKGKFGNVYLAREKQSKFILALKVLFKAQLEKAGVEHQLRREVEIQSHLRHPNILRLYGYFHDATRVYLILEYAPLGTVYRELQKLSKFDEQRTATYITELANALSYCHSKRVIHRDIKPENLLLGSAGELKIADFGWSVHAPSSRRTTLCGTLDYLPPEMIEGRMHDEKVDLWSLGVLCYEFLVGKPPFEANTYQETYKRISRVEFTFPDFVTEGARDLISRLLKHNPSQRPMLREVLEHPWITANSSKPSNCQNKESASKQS
Summary of the method: as §1

[14] = system: NR3B3 (ERRγ); settings: (lit.); ref Supplementary Table 1; read-out: Potency [nM] IC50, NR3B3 (ERRγ); cited from earlier work
[15] = target: T8, BRPF1 (Homo sapiens, UniProt P55201); assay: Liability panel screening by DSF: BRPF1; type: binding; settings: DSF, 20 µM, n=2; read-out: Mean ΔTM BRPF1
T8 construct: This panel comprised ten highly ligandable kinases and bromodomains; made in house
T8 sequence (P55201 628-732 limits assumed): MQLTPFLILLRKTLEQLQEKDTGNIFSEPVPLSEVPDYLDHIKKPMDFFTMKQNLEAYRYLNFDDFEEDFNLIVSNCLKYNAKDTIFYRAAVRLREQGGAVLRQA
Summary of the method: as §1

[16] = target: T9, GSK3B (Homo sapiens, UniProt P49841); assay: Liability panel screening by DSF: GSK3B; type: binding; settings: DSF, 20 µM, n=2; read-out: Mean ΔTM GSK3B
T9 construct: made in house

[17] = system: NR3A1 (ERα); settings: (lit.); ref Supplementary Table 1; read-out: Potency [nM] EC50, NR3A1 (ERα); cited from earlier work
[18] = system: NR3A2 (ERβ); settings: (lit.); ref Supplementary Table 1; read-out: Potency [nM] EC50, NR3A2 (ERβ); cited from earlier work
[19] = system: Gal4-VP16; type: cell-based; settings: 1 µM
Protocol: Five hours after transfection, the cells were incubated with the NR3 CG compound candidates at the recommended concentrations by changing the medium to Opti-MEM supplemented with penicillin (100 µ/mL) and streptomycin (100 µg/mL) additionally containing 0.1% DMSO and the respective test compound or 0.1% DMSO alone as untreated control. Firefly (reporter) and renilla (control) luminescence were measured after 14–16 h incubation using the Dual-Glo® Luciferase Assay System (Promega, Fitchburg, Wisconsin, USA; #E2980) according to manufacturer’s protocol on a Tecan Spark® 10M multimode microplate reader (Tecan Group AG, Männedorf, Switzerland). To obtain relative light units (RLU) firefly luminescence was divided by renilla luminescence and multiplied by 1000. Fold activation was obtained by dividing the mean RLU of a test sample by the mean RLU of the DMSO (0.1%) control. Experiments were performed in singlets in at least three biologically independent repeats.
are labeled according to their mode of action (yellow - agonist, grey - antagonist, grey with label D - degrader) and grouped by their
NR3 subfamily main targets.
reporter activity at the indicated concentrations expressed as mean fold reporter gene activity (n=3).

[20] = cited from earlier work
[21] = target: T10, CSNK1D (Homo sapiens, UniProt P48730); assay: Liability panel screening by DSF: CSNK1D; type: binding; settings: DSF, 20 µM, n=2; read-out: Mean ΔTM CSNK1D
T10 construct: made in house
Summary of the method: as §1

[22] = system: HEK293T cells; assay: Evaluation of cytotoxicity (overall: growth-rate, metabolic activity, apoptosis, necrosis); type: cell-based; settings: HEK293T, 24 h; budesonide (3 µM), others at tested concentration
Protocol: The selection of 40 CG candidates was acquired from commercial vendors (purity ≥95%) and applied to initial toxicity screening. Cytotoxicity was determined in HEK293T cells considering growth-rate, metabolic activity as well as apoptosis and/or necrosis induction to evaluate suitability of the compounds for CG application in cellular settings (Fig. 3a–d, Supplementary Fig. 1, Supplementary Data 1). The candidates were generally well tolerated at concentrations >>EC50/IC50 that we recommend for CG application with only four compounds showing mild toxic effects. […] In terms of cytotoxicity, all candidates thus appeared suitable for inclusion in an NR3 CG set.

T1 sequence (P22607 23-806, species assumed): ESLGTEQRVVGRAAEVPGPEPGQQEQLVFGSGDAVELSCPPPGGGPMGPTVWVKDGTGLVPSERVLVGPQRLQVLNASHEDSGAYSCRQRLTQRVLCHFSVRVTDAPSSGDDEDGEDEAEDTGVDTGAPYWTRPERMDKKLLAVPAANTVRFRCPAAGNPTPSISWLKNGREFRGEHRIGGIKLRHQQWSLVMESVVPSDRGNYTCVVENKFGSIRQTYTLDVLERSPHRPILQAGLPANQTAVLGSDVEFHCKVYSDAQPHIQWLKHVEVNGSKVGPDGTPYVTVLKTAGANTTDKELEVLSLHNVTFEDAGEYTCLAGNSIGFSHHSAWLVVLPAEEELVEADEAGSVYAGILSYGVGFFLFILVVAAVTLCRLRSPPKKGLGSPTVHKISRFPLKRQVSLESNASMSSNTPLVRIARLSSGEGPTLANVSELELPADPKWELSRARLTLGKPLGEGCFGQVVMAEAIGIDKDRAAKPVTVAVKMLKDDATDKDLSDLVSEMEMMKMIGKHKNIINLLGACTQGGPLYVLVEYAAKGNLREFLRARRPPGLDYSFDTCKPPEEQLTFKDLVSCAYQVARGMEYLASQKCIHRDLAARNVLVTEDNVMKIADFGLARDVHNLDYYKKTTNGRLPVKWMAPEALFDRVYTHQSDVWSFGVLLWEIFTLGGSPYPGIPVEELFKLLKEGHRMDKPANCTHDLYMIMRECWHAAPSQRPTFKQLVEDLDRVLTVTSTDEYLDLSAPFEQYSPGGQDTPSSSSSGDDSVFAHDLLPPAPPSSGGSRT
T2 sequence (P00519 whole entry, species assumed): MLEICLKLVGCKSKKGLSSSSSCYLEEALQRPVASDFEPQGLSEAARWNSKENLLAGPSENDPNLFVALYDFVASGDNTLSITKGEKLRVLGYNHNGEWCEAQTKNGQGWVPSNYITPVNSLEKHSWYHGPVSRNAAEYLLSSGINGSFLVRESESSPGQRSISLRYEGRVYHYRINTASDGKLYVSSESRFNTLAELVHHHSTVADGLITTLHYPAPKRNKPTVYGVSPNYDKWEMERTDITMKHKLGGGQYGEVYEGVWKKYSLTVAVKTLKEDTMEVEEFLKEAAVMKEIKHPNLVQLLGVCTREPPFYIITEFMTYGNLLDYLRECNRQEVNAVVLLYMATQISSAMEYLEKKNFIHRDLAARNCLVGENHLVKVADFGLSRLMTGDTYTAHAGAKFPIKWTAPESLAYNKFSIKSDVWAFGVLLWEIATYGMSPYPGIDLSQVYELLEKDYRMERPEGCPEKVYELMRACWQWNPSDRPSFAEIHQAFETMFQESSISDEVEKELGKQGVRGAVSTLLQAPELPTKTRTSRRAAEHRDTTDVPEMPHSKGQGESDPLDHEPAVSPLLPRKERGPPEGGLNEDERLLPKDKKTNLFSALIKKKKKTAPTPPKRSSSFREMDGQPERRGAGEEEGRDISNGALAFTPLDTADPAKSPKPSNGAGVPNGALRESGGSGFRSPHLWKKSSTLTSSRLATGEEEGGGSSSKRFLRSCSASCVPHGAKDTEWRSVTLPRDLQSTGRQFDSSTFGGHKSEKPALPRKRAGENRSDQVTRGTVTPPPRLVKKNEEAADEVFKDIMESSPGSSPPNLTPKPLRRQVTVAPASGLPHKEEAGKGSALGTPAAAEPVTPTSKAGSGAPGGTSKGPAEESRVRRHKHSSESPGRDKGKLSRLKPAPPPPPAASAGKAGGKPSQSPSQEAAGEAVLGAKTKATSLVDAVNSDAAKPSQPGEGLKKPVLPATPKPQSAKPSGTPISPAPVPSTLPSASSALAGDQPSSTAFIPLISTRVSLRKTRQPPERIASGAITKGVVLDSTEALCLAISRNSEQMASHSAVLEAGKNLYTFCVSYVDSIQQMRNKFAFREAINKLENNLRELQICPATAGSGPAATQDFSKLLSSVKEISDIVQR
T4 sequence (P28482 whole entry, species assumed): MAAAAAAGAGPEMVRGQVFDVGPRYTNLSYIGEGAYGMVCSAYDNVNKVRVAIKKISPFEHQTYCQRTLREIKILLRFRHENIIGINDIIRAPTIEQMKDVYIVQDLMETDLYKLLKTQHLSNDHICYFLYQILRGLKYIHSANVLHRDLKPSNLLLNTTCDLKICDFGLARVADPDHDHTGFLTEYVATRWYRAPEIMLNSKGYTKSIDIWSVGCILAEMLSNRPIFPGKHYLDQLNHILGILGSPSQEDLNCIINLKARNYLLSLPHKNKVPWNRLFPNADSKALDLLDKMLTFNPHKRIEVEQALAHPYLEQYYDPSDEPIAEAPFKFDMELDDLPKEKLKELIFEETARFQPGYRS
T10 sequence (P48730 whole entry, species assumed): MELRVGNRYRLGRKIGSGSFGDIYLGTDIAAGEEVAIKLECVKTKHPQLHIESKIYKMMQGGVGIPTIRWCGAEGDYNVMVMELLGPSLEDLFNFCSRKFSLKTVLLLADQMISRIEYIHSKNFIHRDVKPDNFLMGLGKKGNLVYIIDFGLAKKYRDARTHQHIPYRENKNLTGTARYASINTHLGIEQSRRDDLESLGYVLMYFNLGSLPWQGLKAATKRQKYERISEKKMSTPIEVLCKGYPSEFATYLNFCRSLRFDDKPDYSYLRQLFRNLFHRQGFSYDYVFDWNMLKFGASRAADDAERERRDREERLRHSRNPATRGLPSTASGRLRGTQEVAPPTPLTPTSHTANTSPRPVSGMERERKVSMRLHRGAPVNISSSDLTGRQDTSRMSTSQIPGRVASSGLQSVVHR
T9 sequence (P49841 whole entry, species assumed): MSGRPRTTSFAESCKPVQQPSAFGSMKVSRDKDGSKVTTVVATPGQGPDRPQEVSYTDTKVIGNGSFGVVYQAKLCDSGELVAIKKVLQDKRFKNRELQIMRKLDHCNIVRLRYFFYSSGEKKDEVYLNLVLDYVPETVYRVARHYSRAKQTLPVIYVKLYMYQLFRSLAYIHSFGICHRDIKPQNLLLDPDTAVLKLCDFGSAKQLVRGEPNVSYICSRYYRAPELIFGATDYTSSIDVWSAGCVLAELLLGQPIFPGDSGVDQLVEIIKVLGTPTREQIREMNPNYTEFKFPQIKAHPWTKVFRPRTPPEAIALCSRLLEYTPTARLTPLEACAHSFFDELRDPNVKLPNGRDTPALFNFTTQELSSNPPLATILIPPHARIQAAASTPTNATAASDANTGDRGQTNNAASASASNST

For `CC(C)(c1ccc(O)cc1)c1ccc(O)cc1` [Bisphenol A], the ΔTm at 20 µM [1] was 0.44 °C, the ΔTm at 20 µM [2] was 0.26 °C and the ΔTm at 20 µM [3] was -2.63 °C. For the same compound, the activity at 0.3 µM [4] was 96%, the “Metabolic activity [MA]” value ([5]; 0.3 µM, HEK293T, 24 h, WST-8, normalized to 0.1% DMSO) was 1.05 (2×) and 0.84 and 0.94 and 1.07 and 0.99 (2×) and 1.13 and the “Necrosis induction [NI]” value [6] was 0.87 and 0.82 and 0.90 and 1.20. The ΔTm at 20 µM [7] was 0.26 °C, the “Growth rate [GR]” value ([8]; 0.3 µM) was 0.54 and 1.52 and 0.90 (2×) and 1.13 and 0.87 and 0.95 and 0.88 and 2.38 and 0.44 and the ΔTm at 20 µM [9] was -1.35 °C. The “Apoptosis induction [AI]” value ([10]; 0.3 µM, HEK293T, 24 h, apoptotic cell count normalized to 0.1% DMSO) was 0.73 and 0.80 and 0.66 and 1.02 and 0.52 and 0.91, the ΔTm at 20 µM [11] was 1.16 °C and the “Mean NFκB response” value ([12]; 0.3 µM, 1,5 h) was 2380.54 GFP+-cells/confluence ∙ 1000. The “Mean NFκB response” value ([12]; 0.3 µM, 4,5 h) was 2758.19 GFP+-cells/confluence ∙ 1000, the “Mean NFκB response” value ([12]; 0.3 µM, 7,5 h) was 7233.84 GFP+-cells/confluence ∙ 1000 and the “Mean NFκB response” value ([12]; 0.3 µM, 10,5 h) was 19121.46 GFP+-cells/confluence ∙ 1000. The “Mean NFκB response” value ([12]; 0.3 µM, 13,5 h) was 28203.30 GFP+-cells/confluence ∙ 1000, the “Mean NFκB response” value ([12]; 0.3 µM, 16,6 h) was 34624.31 GFP+-cells/confluence ∙ 1000 and the “Mean NFκB response” value ([12]; 0.3 µM, 19,5 h) was 39396.74 GFP+-cells/confluence ∙ 1000. For the same compound, the “Mean NFκB response” value ([12]; 0.3 µM, 22,5 h) was 42069.32 GFP+-cells/confluence ∙ 1000, the “Mean NFκB response” value ([12]; 0.3 µM, 3 h) was 2422.37 GFP+-cells/confluence ∙ 1000 and the “Mean NFκB response” value ([12]; 0.3 µM, 6 h) was 3882.85 GFP+-cells/confluence ∙ 1000. For the same compound, the “Mean NFκB response” value ([12]; 0.3 µM, 9 h) was 13703.44 GFP+-cells/confluence ∙ 1000, the “Mean NFκB response” value ([12]; 0.3 µM, 12 h) was 24104.26 GFP+-cells/confluence ∙ 1000 and the “Mean NFκB response” value ([12]; 0.3 µM, 15 h) was 31750.86 GFP+-cells/confluence ∙ 1000. The “Mean NFκB response” value ([12]; 0.3 µM, 18 h) was 37025.53 GFP+-cells/confluence ∙ 1000, the “Mean NFκB response” value ([12]; 0.3 µM, 21 h) was 40865.92 GFP+-cells/confluence ∙ 1000 and the “Mean NFκB response” value ([12]; 0.3 µM, 24 h) was 43618.62 GFP+-cells/confluence ∙ 1000. For the same compound, the ΔTm at 20 µM [13] was 0.19 °C, the IC50 [14] was 13 ± 2 nM and the ΔTm at 20 µM [15] was -2.21 °C.

With `C#C[C@]1(O)CC[C@H]2[C@@H]3CCc4cc(O)ccc4[C@H]3CC[C@@]21C` [Ethinylestradiol] the ΔTm at 20 µM [1] was -0.28 °C, the ΔTm at 20 µM [2] was -0.29 °C and the ΔTm at 20 µM [16] was 0.23 °C. For the same compound, the ΔTm at 20 µM [3] was 0.13 °C, the EC50 [17] was 8 ± 1 nM and the “Metabolic activity [MA]” value ([5]; 1 µM, DMSO 0.1% = 1.00) was 1.06 (2×) and 0.82 and 1.07 and 1.00 and 0.95. The EC50 [18] was 18 ± 2 nM, the ΔTm at 20 µM [7] was 0.35 °C and the “Growth rate [GR]” value ([8]; 1 µM) was 1.36 and 0.84 and 1.03 and 0.88 and 0.94 and 0.78. For the same compound, the “VP16 control [fold reporter gene activity] (n=3), n=1” value ([19]; replicate n=1) was 1.03 fold, the “VP16 control [fold reporter gene activity] (n=3), n=2” value ([19]; replicate n=2) was 0.89 fold and the “VP16 control [fold reporter gene activity] (n=3), n=3” value ([19]; replicate n=3) was 0.92 fold. The ΔTm at 20 µM [9] was -1.12 °C, the “Apoptosis induction [AI]” value ([10]; 1 µM, DMSO 0.1% = 1.00) was 1.56 and 1.81 and the apoptosis induction ([10]; HEK293T, 24 h, budesonide (3 µM), others at tested concentration) was “slight apoptosis induction”. For the same compound, the ΔTm at 20 µM [11] was -0.25 °C, the ΔTm at 20 µM [13] was 0.11 °C and the “NR off-target at recom. conc.” value ([20]; known NR off-target at the recommended concentration, ref Supplementary Table 1 (superscript references)) was “NR1I3”. The “Other off-target at recom. conc.” value ([20]; known off-target outside the NR family at the recommended concentration, ref Supplementary Table 1 (superscript references)) was “AOX1 and CYP2B6 and SULT1A1 and OCT2”, the “Reason for exclusion: number of annotated off-targets” value ([20]; other targets with annotated bioactivities at ≤10 µM in previously published dataset) was over 5 off-targets and the ΔTm at 20 µM [21] was 0.07 °C. For the same compound, the “effects on growth-rate, metabolic activity and necrosis” value [22] was “without relevant effects” and the ΔTm at 20 µM [15] was 1.32 °C.
